Experimental findings from the Kinase Knowledgebase extract (Sharma et al. 2016) are described below.

In brackets after ≈: the same amount, converted by molar mass. Bounds are passed on as bounds.

A word on the IC50: it is the point on the concentration scale where inhibition reaches its midpoint. A higher IC50 goes with weaker potency in that assay. Broadly, the inhibition is the change of the read-out against control, counted positive when it falls. Read a low inhibition as little suppression.

One experiment deals with EGFR (UniProt P00533).
Chain of EGFR (P00533 whole entry, looked up): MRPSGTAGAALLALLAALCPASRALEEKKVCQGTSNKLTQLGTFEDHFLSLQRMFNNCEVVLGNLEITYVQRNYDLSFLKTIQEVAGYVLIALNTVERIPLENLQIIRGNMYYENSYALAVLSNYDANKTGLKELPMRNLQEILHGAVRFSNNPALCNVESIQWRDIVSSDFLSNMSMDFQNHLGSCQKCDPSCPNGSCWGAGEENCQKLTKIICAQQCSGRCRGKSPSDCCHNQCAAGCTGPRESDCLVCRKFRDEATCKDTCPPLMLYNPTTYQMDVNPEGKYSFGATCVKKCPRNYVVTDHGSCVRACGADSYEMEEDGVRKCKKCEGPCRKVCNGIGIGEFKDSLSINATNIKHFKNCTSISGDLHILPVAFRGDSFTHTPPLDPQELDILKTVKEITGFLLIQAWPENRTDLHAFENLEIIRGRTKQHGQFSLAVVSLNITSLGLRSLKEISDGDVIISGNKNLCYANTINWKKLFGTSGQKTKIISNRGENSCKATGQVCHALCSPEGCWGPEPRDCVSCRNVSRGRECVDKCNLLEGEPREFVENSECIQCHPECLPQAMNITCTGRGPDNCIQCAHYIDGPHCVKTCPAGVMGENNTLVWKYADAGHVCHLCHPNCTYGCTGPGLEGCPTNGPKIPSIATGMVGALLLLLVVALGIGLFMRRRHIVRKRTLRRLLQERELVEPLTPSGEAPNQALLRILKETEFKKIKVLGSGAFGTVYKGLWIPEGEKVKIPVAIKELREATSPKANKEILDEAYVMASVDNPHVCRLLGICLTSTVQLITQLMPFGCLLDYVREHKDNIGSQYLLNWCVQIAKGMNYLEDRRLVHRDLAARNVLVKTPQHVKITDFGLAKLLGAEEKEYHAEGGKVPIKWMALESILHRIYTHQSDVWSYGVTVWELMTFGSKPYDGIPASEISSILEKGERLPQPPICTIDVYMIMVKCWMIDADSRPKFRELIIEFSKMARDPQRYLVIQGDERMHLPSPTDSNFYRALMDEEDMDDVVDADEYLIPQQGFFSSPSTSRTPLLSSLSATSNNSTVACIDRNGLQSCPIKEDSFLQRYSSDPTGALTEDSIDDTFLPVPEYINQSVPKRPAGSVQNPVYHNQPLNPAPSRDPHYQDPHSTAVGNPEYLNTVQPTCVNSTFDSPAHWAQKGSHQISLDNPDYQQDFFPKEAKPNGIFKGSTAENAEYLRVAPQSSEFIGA
Details: not given
In turn, `COc1cc2ncc(C#N)c(Nc3ccc4[nH]ccc4c3)c2cc1OC` returned a 50% inhibitory concentration (IC50) of 1.5 to 4 nM.

`Cn1ccnc1Sc1ccc(Nc2c(C#N)cnc3ccc(/C=C/C(N)=O)cc23)cc1Cl`: the half-maximal inhibitory concentration (IC50) is 10 nM.

`CCOc1cc2ncc(C#N)c(Nc3ccc4c(c3)NCC4)c2cc1OCC`: the half-maximal inhibitory concentration (IC50) is > 10000 nM.

Staying with this experiment, now noted: concentration not given here.
On to `COc1cc2ncc(C#N)c(Nc3ccc4[nH]ncc4c3)c2cc1OC`, for which the inhibition was found to be 0%.

In the case of `COc1cc2c(Nc3ccc4cn[nH]c4c3)c(C#N)cnc2cc1OCCN(C)C`, the inhibition was 0%.

`COc1cc2ncc(C#N)c(Nc3ccc4[nH]c(=O)sc4c3)c2cc1OC` showed an inhibition of 0%.

In turn, `CCOc1cc2ncc(C#N)c(Nc3ccc4c(c3)NCC4)c2cc1OCC` registered an inhibition of 6%.

For `COc1cc2ncc(C#N)c(Nc3ccc(O)c4ncccc34)c2cc1OC`, the inhibition was 0%.

`COc1cc2ncc(C#N)c(Nc3cccc4cnccc34)c2cc1OC` came in with an inhibition of 0%.

`COc1cc2ncc(C#N)c(Nc3cccc4ncccc34)c2cc1OC` came in with an inhibition of 0%.

The next experiment concerns the target EGFR (human) (UniProt P00533). The following applies: mda-mb-435.
For `CCOc1cc2ncc(C#N)c(Nc3ccc4c(=O)[nH][nH]c(=O)c4c3)c2cc1OCC`, the IC50 is > 5 µg/mL.

As to `CCOc1cc2ncc(C#N)c(Nc3ccc4cc[nH]c4c3)c2cc1OCC`, the IC50 is 0.073 to 0.365 µg/mL (≈ 0.196 to 0.98 µM).

For `CCOc1cc2ncc(C#N)c(Nc3ccc4c(c3)C(=O)NCC(=O)N4C)c2cc1OCC`, the 50% inhibitory concentration (IC50) is > 5 µg/mL.

Turning to `CCOc1cc2ncc(C#N)c(Nc3ccc4cn[nH]c4c3)c2cc1OCC`, the 50% inhibitory concentration (IC50) amounted to 0.02 µg/mL (≈ 0.0536 µM).

The compound `CCOc1cc2ncc(C#N)c(Nc3ccc4c(c3)OCCO4)c2cc1OCC` came in with a half-maximal inhibitory concentration (IC50) of 0.235 µg/mL (≈ 0.6 µM).

As for `CCOc1cc2ncc(C#N)c(Nc3ccc4[nH]c(=O)oc(=O)c4c3)c2cc1OCC`, the IC50 was > 5 µg/mL.

`CCOc1cc2ncc(C#N)c(Nc3ccc4c(c3)S(=O)(=O)C=C4)c2cc1OCC` showed an IC50 of 0.0033 µg/mL (≈ 0.00783 µM).

`CCOc1cc2ncc(C#N)c(Nc3ccc4c[nH]nc4c3)c2cc1OC`: the half-inhibitory concentration (IC50) stood at 0.0359 µg/mL (≈ 0.0999 µM).

In the case of `CCOc1cc2ncc(C#N)c(Nc3ccc4c(c3)CCC4=O)c2cc1OCC`, the IC50 is 0.028 µg/mL (≈ 0.0723 µM).

In turn, `COCCOc1cc2ncc(C#N)c(Nc3ccc4cn[nH]c4c3)c2cc1OCCOC` had an IC50 of 2.04 µg/mL (≈ 4.72 µM).

`CCOc1cc2c(Nc3ccc4cn[nH]c4c3)c(C#N)cnc2cc1OC` had an IC50 of 2.63 µg/mL (≈ 7.31 µM).

`CCOc1cc2ncc(C#N)c(Nc3ccc4c(c3)C(=O)OC4)c2cc1OCC` had a concentration for half-maximal inhibition (IC50) of 3.4 µg/mL (≈ 8.74 µM).

As for `CCOc1cc2ncc(C#N)c(Nc3ccc4c(c3)CCC4)c2cc1OCC`, the 50% inhibitory concentration (IC50) was determined as 0.352 µg/mL (≈ 0.943 µM).

The next experiment deals with EGFR (human) (UniProt P00533). The following applies: a431.
Chain of EGFR (human) (P00533 whole entry, looked up): as above
Regarding `CCOc1cc2ncc(C#N)c(Nc3ccc4c(=O)[nH][nH]c(=O)c4c3)c2cc1OCC`, the IC50 is > 5 µg/mL.

As to `CCOc1cc2ncc(C#N)c(Nc3ccc4cc[nH]c4c3)c2cc1OCC`, the concentration for half-maximal inhibition (IC50) lay in the range of 0.123 to 0.216 µg/mL (≈ 0.33 to 0.58 µM).

Regarding `CCOc1cc2ncc(C#N)c(Nc3ccc4c(c3)C(=O)NCC(=O)N4C)c2cc1OCC`, the IC50 is > 5 µg/mL.

Compound `CCOc1cc2ncc(C#N)c(Nc3ccc4cn[nH]c4c3)c2cc1OCC` came in with an IC50 of 0.025 µg/mL (≈ 0.0669 µM).

On to `CCOc1cc2ncc(C#N)c(Nc3ccc4[nH]c(=O)oc(=O)c4c3)c2cc1OCC`, for which the concentration for half-maximal inhibition (IC50) was > 5 µg/mL.

For `CCOc1cc2ncc(C#N)c(Nc3ccc4c(C)cc(=O)oc4c3)c2cc1OCC`, the IC50 turned out to be 0.369 µg/mL (≈ 0.888 µM).

On to `CCOc1cc2ncc(C#N)c(Nc3ccc4c(c3)CCC4=O)c2cc1OCC`, for which the half-maximal inhibitory concentration (IC50) stood at 0.0244 µg/mL (≈ 0.063 µM).

With `CCOc1cc2ncc(C#N)c(Nc3ccc4c(c3)C(=O)OC4)c2cc1OCC`, the IC50 was > 5 µg/mL.

For the next experiment, the target named is EGFR (human) (UniProt P00533). As to conditions: sk-br-3.
Regarding `CCOc1cc2ncc(C#N)c(Nc3ccc4c(=O)[nH][nH]c(=O)c4c3)c2cc1OCC`, the IC50 was > 5 µg/mL.

Compound `CCOc1cc2ncc(C#N)c(Nc3ccc4cc[nH]c4c3)c2cc1OCC` had a half-inhibitory concentration (IC50) of 0.0374 to 0.18 µg/mL (≈ 0.1 to 0.483 µM).

Consider `CCOc1cc2ncc(C#N)c(Nc3ccc4c(c3)C(=O)NCC(=O)N4C)c2cc1OCC`, for which the IC50 is > 5 µg/mL.

`CCOc1cc2ncc(C#N)c(Nc3ccc4cn[nH]c4c3)c2cc1OCC` had an IC50 of 0.016 µg/mL (≈ 0.0428 µM).

The compound `CCOc1cc2ncc(C#N)c(Nc3ccc4c(c3)OCCO4)c2cc1OCC` returned an IC50 of 0.281 µg/mL (≈ 0.718 µM).

For the compound `CCOc1cc2ncc(C#N)c(Nc3ccc4[nH]c(=O)oc(=O)c4c3)c2cc1OCC`, the IC50 was > 5 µg/mL.

As to `CCOc1cc2ncc(C#N)c(Nc3ccc4c(c3)S(=O)(=O)C=C4)c2cc1OCC`, the concentration for half-maximal inhibition (IC50) stood at 0.336 µg/mL (≈ 0.797 µM).

Compound `CCOc1cc2ncc(C#N)c(Nc3ccc4c(C)cc(=O)oc4c3)c2cc1OCC` came in with an IC50 of 0.429 µg/mL (≈ 1.03 µM).

Compound `CCOc1cc2ncc(C#N)c(Nc3ccc4c[nH]nc4c3)c2cc1OC` had an IC50 of 0.022 µg/mL (≈ 0.0612 µM).

`CCOc1cc2ncc(C#N)c(Nc3ccc4c(c3)CCC4=O)c2cc1OCC` registered an IC50 of 0.0281 µg/mL (≈ 0.0725 µM).

As to `COCCOc1cc2ncc(C#N)c(Nc3ccc4cn[nH]c4c3)c2cc1OCCOC`, the concentration for half-maximal inhibition (IC50) is > 5 µg/mL.

As for `CCOc1cc2c(Nc3ccc4cn[nH]c4c3)c(C#N)cnc2cc1OC`, the concentration for half-maximal inhibition (IC50) stood at 2.09 µg/mL (≈ 5.83 µM).

As to `CCOc1cc2ncc(C#N)c(Nc3ccc4c(c3)C(=O)OC4)c2cc1OCC`, the IC50 is > 5 µg/mL.

Consider `CCOc1cc2ncc(C#N)c(Nc3ccc4c(c3)CCC4)c2cc1OCC`, for which the IC50 was > 0.294 µg/mL.

The target in another experiment is EGFR (human) (UniProt P00533). The following applies: a2780.
In the case of `CCOc1cc2ncc(C#N)c(Nc3ccc4cc[nH]c4c3)c2cc1OCC`, the IC50 is 0.231 µg/mL (≈ 0.62 µM).

`CCOc1cc2ncc(C#N)c(Nc3ccc4cn[nH]c4c3)c2cc1OCC`: the IC50 was 0.032 µg/mL (≈ 0.0857 µM).

In the case of `CCOc1cc2ncc(C#N)c(Nc3ccc4c(C)cc(=O)oc4c3)c2cc1OCC`, the IC50 worked out at 0.27 µg/mL (≈ 0.65 µM).

In a further experiment the target is EGFR (human) (UniProt P00533). The following applies: ddp.
With `CCOc1cc2ncc(C#N)c(Nc3ccc4cc[nH]c4c3)c2cc1OCC`, the half-maximal inhibitory concentration (IC50) was 0.313 µg/mL (≈ 0.84 µM).

Consider `CCOc1cc2ncc(C#N)c(Nc3ccc4cn[nH]c4c3)c2cc1OCC`, for which the IC50 is 0.036 µg/mL (≈ 0.0964 µM).

The compound `CCOc1cc2ncc(C#N)c(Nc3ccc4c(C)cc(=O)oc4c3)c2cc1OCC` returned an IC50 of 0.249 µg/mL (≈ 0.599 µM).

In another experiment the target is EGFR (human) (UniProt P00533). As to conditions: sw 620.
Take `CCOc1cc2ncc(C#N)c(Nc3ccc4c(=O)[nH][nH]c(=O)c4c3)c2cc1OCC`: the half-maximal inhibitory concentration (IC50) was > 5 µg/mL.

Compound `CCOc1cc2ncc(C#N)c(Nc3ccc4cc[nH]c4c3)c2cc1OCC` displayed an IC50 of 0.286 to 0.326 µg/mL (≈ 0.768 to 0.875 µM).

`CCOc1cc2ncc(C#N)c(Nc3ccc4c(c3)C(=O)NCC(=O)N4C)c2cc1OCC`: the IC50 was > 5 µg/mL.

`CCOc1cc2ncc(C#N)c(Nc3ccc4cn[nH]c4c3)c2cc1OCC` displayed an IC50 of 0.033 µg/mL (≈ 0.0884 µM).

On to `CCOc1cc2ncc(C#N)c(Nc3ccc4c(c3)OCCO4)c2cc1OCC`, for which the half-maximal inhibitory concentration (IC50) was 0.411 µg/mL (≈ 1.05 µM).

As for `CCOc1cc2ncc(C#N)c(Nc3ccc4[nH]c(=O)oc(=O)c4c3)c2cc1OCC`, the half-maximal inhibitory concentration (IC50) stood at 2.92 µg/mL (≈ 6.98 µM).

Compound `CCOc1cc2ncc(C#N)c(Nc3ccc4c(c3)S(=O)(=O)C=C4)c2cc1OCC` yielded a concentration for half-maximal inhibition (IC50) of 0.146 µg/mL (≈ 0.346 µM).

`CCOc1cc2ncc(C#N)c(Nc3ccc4c(C)cc(=O)oc4c3)c2cc1OCC` registered an IC50 of 0.325 µg/mL (≈ 0.782 µM).

Regarding `CCOc1cc2ncc(C#N)c(Nc3ccc4c[nH]nc4c3)c2cc1OC`, the IC50 turned out to be 0.0212 µg/mL (≈ 0.059 µM).

As to `COCCOc1cc2ncc(C#N)c(Nc3ccc4cn[nH]c4c3)c2cc1OCCOC`, the half-maximal inhibitory concentration (IC50) is > 5 µg/mL.

On to `CCOc1cc2c(Nc3ccc4cn[nH]c4c3)c(C#N)cnc2cc1OC`, for which the IC50 was determined as 4.31 µg/mL (≈ 12 µM).

Consider `CCOc1cc2ncc(C#N)c(Nc3ccc4c(c3)C(=O)OC4)c2cc1OCC`, for which the IC50 came out at 1.56 µg/mL (≈ 4.02 µM).

Turning to `CCOc1cc2ncc(C#N)c(Nc3ccc4c(c3)CCC4)c2cc1OCC`, the IC50 was < 0.0005 µg/mL.

In the next experiment the target is EGFR (human) (UniProt P00533). The following applies: 3t3.
With `CCOc1cc2ncc(C#N)c(Nc3ccc4c(=O)[nH][nH]c(=O)c4c3)c2cc1OCC`, the 50% inhibitory concentration (IC50) was > 5 µg/mL.

Take `CCOc1cc2ncc(C#N)c(Nc3ccc4c(c3)OCCO4)c2cc1OCC`: the IC50 turned out to be 0.853 µg/mL (≈ 2.18 µM).

With `CCOc1cc2ncc(C#N)c(Nc3ccc4[nH]c(=O)oc(=O)c4c3)c2cc1OCC`, the half-inhibitory concentration (IC50) is > 5 µg/mL.

On to `CCOc1cc2ncc(C#N)c(Nc3ccc4c(c3)S(=O)(=O)C=C4)c2cc1OCC`, for which the concentration for half-maximal inhibition (IC50) was 0.392 µg/mL (≈ 0.93 µM).

The compound `CCOc1cc2ncc(C#N)c(Nc3ccc4c(c3)CCC4=O)c2cc1OCC` displayed an IC50 of 0.0923 µg/mL (≈ 0.238 µM).

As for `COCCOc1cc2ncc(C#N)c(Nc3ccc4cn[nH]c4c3)c2cc1OCCOC`, the 50% inhibitory concentration (IC50) was > 5 µg/mL.

As to `CCOc1cc2c(Nc3ccc4cn[nH]c4c3)c(C#N)cnc2cc1OC`, the concentration for half-maximal inhibition (IC50) is 3.22 µg/mL (≈ 8.96 µM).

The compound `CCOc1cc2ncc(C#N)c(Nc3ccc4c(c3)CCC4)c2cc1OCC` displayed an IC50 of 0.525 µg/mL (≈ 1.41 µM).
